3 molecules from paper PMC8360069, “Prediction and Validation of a Druggable Site on Virulence Factor of Drug Resistant Burkholderia cenocepacia” (Chemistry (Weinheim an Der Bergstrasse, Germany), 2021) can be followed below.

The structures appear in SMILES notation.

What all share (type): binding
Assay [1] has as its target T1, BC2L-C (Burkholderia cenocepacia, UniProt B4EH86).
T1 construct: gene BCAM0185; N-terminal domain (BC2L-C-nt)
Kind of assay: ITC; X-ray crystal structure ([…] Å, with Globo H); STD-NMR. Background: Isothermal titration calorimetry measures the heat released or taken up as one component is titrated into another.

In assay [2] the target is T1, BC2L-C. The assay can be described thus: STD-NMR in the presence of Me-α-L-Fuc (no density in soaked crystals).
Assay [3] concerns the target T1, BC2L-C. The assay can be described thus: STD-NMR; thermal shift assay (about +[…] °C).

T1 sequence (B4EH86 entry or part of it): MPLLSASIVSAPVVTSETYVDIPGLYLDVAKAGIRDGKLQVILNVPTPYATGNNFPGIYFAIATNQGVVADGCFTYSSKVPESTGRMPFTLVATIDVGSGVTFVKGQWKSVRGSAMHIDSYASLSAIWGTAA

`Cc1nccn1-c1cccc(CN)c1` [KL3, 3‐(2‐Methyl‐1H‐imidazol‐1‐yl) benzylamine] registered a Kd on BC2L-C [1] of 877 µM. For `NC(CO)Cc1ccccc1` (stereo not drawn) [KL9], the “STD-NMR in the presence of Me-α-L-Fuc (no density in soaked crystals)” value on BC2L-C [2] was “confirming the binding event for the three fragments in the BC2L‐C‐nt/fucose complex”. Take `CO[C@@H]1O[C@@H](C)[C@@H](O)[C@@H](O)[C@@H]1O` [Methyl α-L-fucoside]: the “STD-NMR; thermal shift assay (about +2 °C)” value on BC2L-C [3] is “Me‐α‐L‐Fuc was initially tested alone in the experiment, verifying that it binds BC2L‐C‐nt”.

A word on the Kd: it is the equilibrium constant for the complex coming apart. Low values mean tighter binding, high ones weaker binding.
